Like-named read-outs stand apart in the source and are kept apart here. Each block holds one molecule with its values, some of them ahead of it.
Tests used:
AncFT [1] = assay: luminescence progress curves, global numerical fit; format: biochemical, synthetic construct; settings: competitive versus coelenterazine; 100 mM phosphate pH 7.5, 37 °C
RLuc8 [2] = target: T1, RLuc8 (Renilla reniformis, UniProt P27652, A143M/A55T/C124A/K136R/M185V/M253L/S130A/S287L); assay: biochemical
AncFT [3] = assay: anaerobic fluorescence titration; parameters: species or system synthetic construct; settings: 100 mM potassium phosphate pH 7.5, 30 °C
AncFT [4] = assay: luminescence progress curves, global numerical fit; format: biochemical, synthetic construct; settings: O2 co-substrate; 100 mM phosphate pH 7.5, 37 °C
RLuc8 [5] = target: T1, RLuc8; assay: biochemical; remark: listed apart in the source
AncFT [6] = assay: anaerobic fluorescence titration; parameters: species or system synthetic construct; settings: 100 mM potassium phosphate pH 7.5, 30 °C; remark: listed apart in the source
RLuc8 [7] = target: T1, RLuc8; assay: biochemical; remark: listed apart in the source
purified protein = substrate: Oc1ccc(Cc2nc3c(Cc4ccccc4)nc(-c4ccc(O)cc4)cn3c2O)cc1; assay: purified protein; settings: O2 co-substrate, 100 mM phosphate pH 7.5, 37 °C

- Ki (AncFT [1]): 0.092 ± 0.002 µM
- Ki (RLuc8 [2]): 16.1 µM
Molecule: O=c1n(Cc2ccc(O)cc2)nc2c(Cc3ccccc3)nc(-c3ccc(O)cc3)cn12 [azaCTZ, 8-Benzyl-2-(4-hydroxybenzyl)-6-(4-hydroxyphenyl)-[1,2,4]triazolo[4,3-a]pyrazin-3(2H)-one]

- Kd (AncFT [3]): 12 ± 5 µM
- Km (AncFT [4]): 0.042 µM
- Kd (RLuc8 [5]): 37 ± 15 µM
Molecule: Oc1ccc(Cc2nc3c(Cc4ccccc4)nc(-c4ccc(O)cc4)cn3c2O)cc1 [CTZ, 2-(p-hydroxybenzyl)-6-(p-hydroxyphenyl)-8-benzylimidazo [1,2-a]pyrazine-3-(7H)-one]

- Kd (AncFT [6]): 16 ± 2 µM
- Kd (RLuc8 [7]): 22 ± 2 µM
Molecule: O=C(Cc1ccc(O)cc1)Nc1ncc(-c2ccc(O)cc2)nc1Cc1ccccc1 [CEI, coelenteramide]

B1: RLuc8 (Renilla reniformis; A143M/A55T/C124A/K136R/M185V/M253L/S130A/S287L) (protein)
chain: MTSKVYDPEQRKRMITGPQWWARCKQMNVLDSFINYYDSEKHAENAVIFLHGNATSSYLWRHVVPHIEPVARCIIPDLIGMGKSGKSGNGSYRLLDHYKYLTAWFELLNLPKKIIFVGHDWGAALAFHYAYEHQDRIKAIVHMESVVDVIESWDEWPDIEEDIALIKSEEGEKMVLENNFFVETVLPSKIMRKLEPEEFAAYLEPFKEKGEVRRPTLSWPREIPLVKGGKPDVVQIVRNYNAYLRASDDLPKLFIESDPGFFSNAIVEGAKKFPNTEFVKVKGLHFLQEDAPDEMGKYIKSFVERVLKNEQ
- Km (purified protein): 1.66 µM

From article doi:10.1101/2022.02.09.479090v1 (biorxiv, 2022)
